# Results published in patent publication US20250179057A1, “MEK IMMUNE ONCOLOGY INHIBITORS AND THERAPEUTIC USES THEREOF” (Immuneering Corporation, priority 2022, published 2025).
# Read-outs that look alike come from different tables or passages of the source.
# What was measured:
# [1] = Liver microsome stability (% remaining at 1 hour), human; format: in vitro ADME; settings: 2 μM
# Procedure: (§1) Materials and Methods: Individual stock solutions of Test Articles (TA) were prepared at 30 mM in DMSO and were further diluted to 2 mM in DMSO. […] Prior to use in the assay, the 2 mM stock solutions were diluted 10-fold with acetonitrile. The acetonitrile diluted stocks were diluted 1:50 into warm (37° C.) 0.1 M potassium phosphate, pH 7.4, containing 2.0 mM NADPH (2× final assay concentration). Frozen liver microsomes were quick thawed in a 37° C. water bath and then placed on ice. […] The plate was incubated with gentle shaking at 37° C. Duplicate 30 μL aliquots were removed immediately after compound addition (To: time zero) and at 60 minutes. […] The quenched samples were gently mixed and were stored in a −20° C. freezer for at least 30 minutes. […]
# (§2) Data Collection and Calculations: Analyst (AB Sciex) and Acquity (Waters) were used for data acquisition. Results were calculated using Microsoft Excel.
# (§3) Peak area ratios for IS-normalized test article counts were used to calculate the percent remaining relative to the time zero (T0) value. As appropriate, results were plotted and further analyzed to calculate half-life (T1/2) and CLint values. […]
# (§4) Results were plotted [ln (% remaining) vs. incubation time] and further analyzed to calculate half-life (T1/2) values: […]
# [2] = Liver microsome stability (% remaining at 1 hour), CD-1 mouse; format: in vitro ADME; settings: 2 μM
# Procedure: as §1, §2, §3, §4
# [3] = Liver microsome stability (% remaining at 1 hour), beagle dog; format: in vitro ADME; settings: 2 μM
# Procedure: as §1, §2, §3, §4
# [4] = system: phospho-ERK in MeWo cells; test: pERK/tERK ratio in MeWo melanoma model; format: cell-based; settings: MeWo (NF1 LoF); 100 nM
# Procedure: (§5) Compound (drug) treatment: Cells were plated in a 6-well plate at a density of 250,000-300,000 cells/well in 3 mL media and incubated 37° C. in a humidified, 5% CO2 incubator. […] These solutions were added to the cells (3 uL/well), mixed by swirling the plate, and incubated at 37° C. in a humidified, 5% CO2 incubator for 2 hours.
# (§6) Cell lysis and protein estimation: Cells were washed with PBS, and scraped in 50 μL of lysis buffer containing protease and phosphatase inhibitors. Cell lysates were stored at −20° C. Cell lysates were thawed and spun at 12,000 rpm for one minute, 3 ul of the supernatant was added to 500 μL of Coomassie blue reagent following by 500 μL of water. […] Protein standards were used (0-20 mg/mL) to calculate protein concentrations of test samples.
# (§7) All samples were heated at 95° C. for 5 minutes, cooled to room temperature and spun down. […] After the run, gel was removed and protein transfer was done using iBlot for 7 minutes, as per manufacturer's recommendations. After the transfer, nitrocellulose membrane was incubated on a shaker in 5 mL of blocking buffer at room temperature for 1 hr. The blot was then incubated overnight on a shaker in 5 ml of blocking buffer containing 0.2% Tween-20 and primary antibody, at room temperature. Anti-phospho-STAT3 antibody was used at a dilution of 1:500, the other 3 primary antibodies were used at a dilution of 1:1000.
# (§8) Next day, the blot was washed 3 times for 10 min each with 10 mL of TBST followed by incubation on a shaker in 5 ml of blocking buffer containing 0.2% Tween-20 and 0.5 ul of the IRDye labeled secondary antibodies, diluted 1:10000, at room temperature for 1 hr. The blot was then washed 3 times for 10 min each with 10 mL of TBST and dried between sheets of paper towels. Imaging was done using LICOR's Odyssey imaging system, quantitation was done using their software, Image Studio version 3.1.
# (§9) The nine models are described in Table 16.
# [5] = system: phospho-ERK in MM415 cells; test: pERK/tERK ratio in MM415 melanoma model; format: cell-based; settings: MM415 (NRAS p.Q61L); 100 nM
# Procedure: as §5, §6, §7, §8, §9
# [6] = system: phospho-MEK in MEL-JUSO cells; test: pMEK/tMEK ratio in MEL-JUSO melanoma model; format: cell-based; settings: MEL-JUSO (HRAS p.G13D, NRAS p.Q61L); 100 nM
# Procedure: as §5, §6, §7, §8, §9
# [7] = system: phospho-MEK in MM415 cells; test: pMEK/tMEK ratio in MM415 melanoma model; format: cell-based
# Procedure: as §5, §6, §7, §8, §9
# [8] = system: phospho-MEK in SK-MEL-2 cells; test: pMEK/tMEK ratio in SK-MEL-2 melanoma model; format: cell-based; settings: SK-MEL-2 (NRAS p.Q61R); 100 nM
# Procedure: as §5, §6, §7, §8, §9
# [9] = system: phospho-MEK in MM127 cells; test: pMEK/tMEK ratio in MM127 melanoma model; format: cell-based; settings: MM127 (NRAS p.G13R, BRAF p.G464E); 100 nM
# Procedure: as §5, §6, §7, §8, §9
# [10] = system: phospho-ERK in SK-MEL-2 cells; test: pERK/tERK ratio in SK-MEL-2 melanoma model; format: cell-based; settings: SK-MEL-2 (NRAS p.Q61R); 100 nM
# Procedure: as §5, §6, §7, §8, §9
# [11] = system: phospho-MEK in SK-MEL-30 cells; test: pMEK/tMEK ratio in SK-MEL-30 melanoma model; format: cell-based
# Procedure: as §5, §6, §7, §8, §9
# [12] = system: phospho-MEK in SK-MEL-28 cells; test: pMEK/tMEK ratio in SK-MEL-28 melanoma model; format: cell-based; settings: SK-MEL-28 (BRAF p.V600E); 100 nM
# Procedure: as §5, §6, §7, §8, §9
# [13] = PubChem Compound Summary; cited from earlier work
"Human (% Reamining @1 hour) ([1]; human, 1 h, pH 7.4) [%]","CD-1 Mouse (% Reamining @1 hour) ([2]; CD-1, mouse, 1 h, pH 7.4) [%]","Beagle Dog (% Reamining @1 hour) ([3]; beagle, dog, 1 h, pH 7.4) [%]",SMILES,pERK/tERK ratio normalized to DMSO [4],pERK/tERK ratio normalized to DMSO [5],pMEK/tMEK ratio normalized to DMSO [6],"pMEK/tMEK ratio normalized to DMSO ([7]; MM415 (NRAS p.Q61L), 100 nM)",pMEK/tMEK ratio normalized to DMSO [8],pMEK/tMEK ratio normalized to DMSO [9],pERK/tERK ratio normalized to DMSO [10],"pMEK/tMEK ratio normalized to DMSO ([11]; SK-MEL-30 (NRAS p.Q61K), 100 nM)",pMEK/tMEK ratio normalized to DMSO [12],pMEK/tMEK ratio normalized to DMSO [7],"Human (% Reamining @1 hour) ([1]; liver microsomes, 1 hour) [%]","CD-1 Mouse (% Reamining @1 hour) ([2]; liver microsomes, 1 hour) [%]",pMEK/tMEK ratio normalized to DMSO [11],"Beagle Dog (% Reamining @1 hour) ([3]; liver microsomes, 1 hour) [%]",human plasma drug half-life [13] [h]
107.1,96.0,111.6,"CNS(=O)(=O)Nc1nccc(Cc2c(C)c3ccc(Oc4ncccn4)cc3oc2=O)c1F [Reference-2, reference compound]",,,,,,,,,,,,,,,
,,,"CNS(=O)(=O)Nc1cccc(Cc2c(CN(C)C)c3ccc(OC(=O)N(C)C)cc3oc2=O)c1Cl [Compound 274, 3-(2-chloro-3-((N-methylsulfamoyl)amino)benzyl)-4-((dimethylamino)methyl)-2-oxo-2H-chromen-7-yl dimethylcarbamate]",0.519,0.423,0.548,0.58,0.518,0.773,0.439,0.609,0.763,,,,,,
,,,"Cn1cnc2c(F)c(Nc3ccc(Br)cc3Cl)c(C(=O)NOCCO)cc21 [Reference-1, Selumetinib]",0.196,0.114,2.988,,2.055,2.341,0.191,,0.984,2.386,75.8,13.9,2.177,97.5,≥ 6.2
